Laboratory results as given in patent publication US9023789B2, “Amylin analogs and pharmaceutical compositions thereof” (Novo Nordisk A/S, priority 2012, dated 2015).
Converted amounts (≈) assume the structure as drawn. Read-outs that look alike come from different tables or passages of the source. Numbered stars: 1 amine (or outer) side, 2 acyl side, 3 side chain; on linkers, the order of the positions; unused ones are H or OH. Bridge positions count the residues as written; N and C are the ends. Side chains are listed from the residue outwards. Peptide text beside a SMILES is read from it. * marks the point of attachment. C20 diacid = O=C(O)CCCCCCCCCCCCCCCCCCC(=O)*; γGlu = O=C(O)[C@H](CCC(=O)[*:2])N[*:1]; AEEA = NCCOCCOCC(=O)O

Legend:
[1] = ASSAY (III) ThT fibrillation assay for physical stability; assay type: physicochemical
In short: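 Formulations with 1 μM ThT, pH adjusted as required, incubated at 37 °C with 960 rpm orbital shaking; fluorescence (ex 444/em 485 nm) read every 20 min. Fibrillation reported as mean ThT fluorescence ± SD of 4–8 replicates at time points; polypeptide concentration measured by reverse-phase HPLC before and after, post-centrifugation.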

[2] = ASSAY (IV) determination of solubility; assay type: physicochemical
In short: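 Dissolve polypeptide in water ([…] stock); combine 1:1 with each 100 mM buffer (glycylglycine pH 3.0/4.0/5.0; bistrispropane pH 6.0/6.5/7.0/7.5/8.0); hold 18 hours at room temperature; centrifuge; quantify polypeptide by UPLC.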

[3] = molecular target: T1, rat amylin receptor (rat calcitonin receptor + rat RAMP 3) (Rattus norvegicus, UniProt P32214+Q9JJ73); assay: ASSAY (VI) binding to the rat amylin receptor
T1 construct: expressed in transfected cells; host or cells: BHK tk'ts 13 (transient, FuGENE 6), membranes
T1 sequence (P32214 25-479 isoform P32214-2 limits assumed): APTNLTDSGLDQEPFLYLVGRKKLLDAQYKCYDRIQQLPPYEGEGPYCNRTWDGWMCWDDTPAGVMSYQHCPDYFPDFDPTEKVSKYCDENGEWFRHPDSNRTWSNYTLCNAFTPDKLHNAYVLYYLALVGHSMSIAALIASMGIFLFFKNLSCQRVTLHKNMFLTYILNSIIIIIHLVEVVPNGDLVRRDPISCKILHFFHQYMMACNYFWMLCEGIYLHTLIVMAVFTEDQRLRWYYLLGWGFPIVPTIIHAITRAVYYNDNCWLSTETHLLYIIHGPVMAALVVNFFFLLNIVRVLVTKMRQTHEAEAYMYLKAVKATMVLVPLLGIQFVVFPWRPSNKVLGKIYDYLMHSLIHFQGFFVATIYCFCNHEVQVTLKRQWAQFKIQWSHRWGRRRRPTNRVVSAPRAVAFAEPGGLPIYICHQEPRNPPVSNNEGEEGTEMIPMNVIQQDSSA
T1 sequence (Q9JJ73 23-147 partner): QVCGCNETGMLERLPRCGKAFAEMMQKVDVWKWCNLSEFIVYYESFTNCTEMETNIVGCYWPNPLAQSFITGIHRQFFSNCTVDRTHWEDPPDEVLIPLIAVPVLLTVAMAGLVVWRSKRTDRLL
In short: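 This assay measured binding to the rat amylin receptor. BHK tk′ts 13 cells were transiently transfected with the rat calcitonin receptor using FuGENE® 6 (Roche), following the manufacturer's recommendations. About 48 hours after transfection, the cells were harvested and membranes were prepared from them for the binding determination.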

[4] = Table 7, rat binding selectivity, rCTR IC50 / rAmylin-R IC50
[5] = Table 7a (preferred compounds), rat binding selectivity, rCTR IC50 / rAmylin-R IC50
[6] = ratio of rCTR bind IC50 to rAmylin-R bind IC50
[7] = bistrispropane buffer, pH 6.5, read-out: Solubility pH 6.5 Concentration
[8] = bistrispropane buffer, pH 7.5, read-out: Solubility pH 7.5 Concentration
[9] = bistrispropane buffer, pH 6.0, read-out: Solubility pH 6.0 Concentration
[10] = bistrispropane buffer, pH 7.0, read-out: Solubility pH 7.0 Concentration
[11] = bistrispropane buffer, pH 8.0, read-out: Solubility pH 8.0 Concentration
[12] = glycylglycine buffer, pH 3.0, read-out: Solubility pH 3.0 Concentration
[13] = glycylglycine buffer, pH 4.0, read-out: Solubility pH 4.0 Concentration
[14] = glycylglycine buffer, pH 5.0, read-out: Solubility pH 5.0 Concentration
[15] = Table 7, binding to rat amylin receptor, read-out: rAmylin-R bind IC50

| SMILES | ThT pH 4.0 lag time (h) [1] [h] | Ratio rCT/rAmylin binding [3, 4] | Ratio rCT/rAmylin binding [3, 5] | Ratio rCT/rAmylin binding [3, 6] | solubility at 18 h [2, 7] [µM] | solubility at 18 h [2, 8] [µM] | solubility at 18 h [2, 9] [µM] | solubility at 18 h [2, 10] [µM] | solubility at 18 h [2, 11] [µM] | solubility at 18 h [2, 12] [µM] | solubility at 18 h [2, 13] [µM] | solubility at 18 h [2, 14] [µM] | IC50 [3, 15] [nM] | further results |
| --- | --- | --- | --- | --- | --- | --- | --- | --- | --- | --- | --- | --- | --- | --- |
| CC[C@H](C)[C@H](NC(=O)[C@H](C)NC(=O)CNC(=O)[C@H](Cc1ccccc1)NC(=O)[C@H](CC(N)=O)NC(=O)[C@@H]1CCCN1C(=O)[C@H](CO)NC(=O)[C@H](CO)NC(=O)[C@H](Cc1c[nH]cn1)NC(=O)[C@H](CCCNC(=N)N)NC(=O)[C@H](CC(C)C)NC(=O)[C@H](Cc1ccccc1)NC(=O)[C@H](CCCCN)NC(=O)[C@H](C)NC(=O)[C@H](CC(C)C)NC(=O)[C@H](CCCNC(=N)N)NC(=O)[C@H](CCC(N)=O)NC(=O)[C@@H](NC(=O)[C@H](C)NC(=O)[C@@H]1CSSC[C@H](NC(=O)[C@@H](N)CCCCNC(=O)COCCOCCNC(=O)CC[C@H](NC(=O)CCCCCCCCCCCCCCCCCCC(=O)O)C(=O)O)C(=O)N[C@@H](CC(N)=O)C(=O)N[C@@H]([C@@H](C)O)C(=O)N[C@@H](C)C(=O)N[C@@H]([C@@H](C)O)C(=O)N1)[C@@H](C)O)C(=O)N1CCC[C@H]1C(=O)N[C@@H](CO)C(=O)N[C@@H](CO)C(=O)N[C@H](C(=O)N1CCC[C@H]1C(=O)N[C@H](C(=O)NCC(=O)N[C@@H](CO)C(=O)N[C@@H](CC(N)=O)C(=O)N[C@H](C(=O)N[C@@H](Cc1ccc(O)cc1)C(N)=O)[C@@H](C)O)C(C)C)[C@@H](C)O [Example 74] (H-K([AEEA-γGlu-C20 diacid])CNTATCATQRLAKFLRHSSPNFGAIPSSTPVGSNTY-NH2; disulfide 2-7; N-terminus assumed) | 45 | 22.3 | 22.3 | 22.3 |  |  |  |  |  |  |  |  |  | solubility at 18 h ([2]; pH 3.0, read-out: Solubility pH 3.0 Concentration): ≥ 200 µM; solubility at 18 h ([2]; pH 4.0, read-out: Solubility pH 4.0 Concentration): ≥ 200 µM; solubility at 18 h ([2]; pH 5.0, read-out: Solubility pH 5.0 Concentration): ≥ 200 µM; solubility at 18 h ([2]; pH 6.0, read-out: Solubility pH 6.0 Concentration): ≥ 200 µM; solubility at 18 h ([2]; pH 6.5, read-out: Solubility pH 6.5 Concentration): ≥ 200 µM; solubility at 18 h ([2]; pH 7.0, read-out: Solubility pH 7.0 Concentration): ≥ 200 µM; solubility at 18 h ([2]; pH 7.5, read-out: Solubility pH 7.5 Concentration): ≥ 200 µM; solubility at 18 h ([2]; pH 8.0, read-out: Solubility pH 8.0 Concentration): ≥ 200 µM; IC50 [3]: 4.89 nM |
| CC[C@H](C)[C@H](NC(=O)[C@H](C)NC(=O)CNC(=O)[C@H](Cc1ccccc1)NC(=O)[C@H](CC(N)=O)NC(=O)[C@@H]1CCCN1C(=O)[C@H](CO)NC(=O)[C@H](CO)NC(=O)[C@H](Cc1c[nH]cn1)NC(=O)[C@H](CCCNC(=N)N)NC(=O)[C@H](CC(C)C)NC(=O)[C@H](Cc1ccccc1)NC(=O)[C@H](CC(N)=O)NC(=O)[C@H](C)NC(=O)[C@H](CC(C)C)NC(=O)[C@H](CCCNC(=N)N)NC(=O)[C@H](CCC(N)=O)NC(=O)[C@@H](NC(=O)[C@H](C)NC(=O)[C@@H]1CSSC[C@H](NC(=O)[C@@H](N)CCCCNC(=O)COCCOCCNC(=O)CC[C@H](NC(=O)CCCCCCCCCCCCCCCCCCC(=O)O)C(=O)O)C(=O)N[C@@H](CC(N)=O)C(=O)N[C@@H]([C@@H](C)O)C(=O)N[C@@H](C)C(=O)N[C@@H]([C@@H](C)O)C(=O)N1)[C@@H](C)O)C(=O)N1CCC[C@H]1C(=O)N[C@@H](CO)C(=O)N[C@@H](CO)C(=O)N[C@H](C(=O)N[C@@H](CC(N)=O)C(=O)N[C@H](C(=O)NCC(=O)N[C@@H](Cc1c[nH]cn1)C(=O)N[C@@H](CC(N)=O)C(=O)N[C@H](C(=O)N[C@@H](Cc1ccc(O)cc1)C(N)=O)[C@@H](C)O)C(C)C)[C@@H](C)O [Example 76] (H-K([AEEA-γGlu-C20 diacid])CNTATCATQRLANFLRHSSPNFGAIPSSTNVGHNTY-NH2; disulfide 2-7; N-terminus assumed) | 22 | 56.8 | 56.8 | 56.8 | ≥ 200 | ≥ 200 | ≥ 200 | ≥ 200 | 140 (≈ 638 µg/mL) | ≥ 200 | ≥ 200 | ≥ 200 | 0.686 |  |
| CC[C@H](C)[C@H](NC(=O)[C@H](C)NC(=O)CNC(=O)[C@H](Cc1ccccc1)NC(=O)[C@H](CC(N)=O)NC(=O)[C@@H]1CCCN1C(=O)[C@H](CO)NC(=O)[C@H](CO)NC(=O)[C@H](Cc1c[nH]cn1)NC(=O)[C@H](CCCNC(=N)N)NC(=O)[C@H](CC(C)C)NC(=O)[C@H](Cc1ccccc1)NC(=O)[C@H](CC(N)=O)NC(=O)[C@H](C)NC(=O)[C@H](CC(C)C)NC(=O)[C@H](CCCNC(=N)N)NC(=O)[C@H](CCC(N)=O)NC(=O)[C@@H](NC(=O)[C@H](C)NC(=O)[C@@H]1CSSC[C@H](NC(=O)[C@@H](N)CCCCNC(=O)CC[C@H](NC(=O)CCCCCCCCCCCCCCCCCCC(=O)O)C(=O)O)C(=O)N[C@@H](CC(N)=O)C(=O)N[C@@H]([C@@H](C)O)C(=O)N[C@@H](C)C(=O)N[C@@H]([C@@H](C)O)C(=O)N1)[C@@H](C)O)C(=O)N1CCC[C@H]1C(=O)N[C@@H](CO)C(=O)N[C@@H](CO)C(=O)N[C@H](C(=O)N[C@@H](CC(N)=O)C(=O)N[C@H](C(=O)NCC(=O)N[C@@H](Cc1c[nH]cn1)C(=O)N[C@@H](CC(N)=O)C(=O)N[C@H](C(=O)N[C@@H](Cc1ccc(O)cc1)C(N)=O)[C@@H](C)O)C(C)C)[C@@H](C)O [Example 77] | 21 | 136.8 | 136.8 | 136.8 | ≥ 200 | 147 (≈ 651 µg/mL) | ≥ 200 | ≥ 200 | 59 (≈ 261 µg/mL) | ≥ 200 | ≥ 200 | ≥ 200 | 1.5 | Solubility pH 6.5 Concentration ([2]; pH 6.5 (Table 9a)): ≧200 μM; Solubility pH 7.0 Concentration ([2]; pH 7.0 (Table 9a)): ≧200 μM |
| CC[C@H](C)[C@H](NC(=O)[C@H](C)NC(=O)CNC(=O)[C@H](Cc1ccccc1)NC(=O)[C@H](CC(N)=O)NC(=O)[C@@H]1CCCN1C(=O)[C@H](CO)NC(=O)[C@H](CO)NC(=O)[C@H](Cc1c[nH]cn1)NC(=O)[C@H](CCCNC(=N)N)NC(=O)[C@H](CC(C)C)NC(=O)[C@H](Cc1ccccc1)NC(=O)[C@H](Cc1c[nH]cn1)NC(=O)[C@H](C)NC(=O)[C@H](CC(C)C)NC(=O)[C@H](CCCNC(=N)N)NC(=O)[C@H](CCC(N)=O)NC(=O)[C@@H](NC(=O)[C@H](C)NC(=O)[C@@H]1CSSC[C@H](NC(=O)[C@@H](N)CCCCNC(=O)COCCOCCNC(=O)CC[C@H](NC(=O)CCCCCCCCCCCCCCCCCCC(=O)O)C(=O)O)C(=O)N[C@@H](CC(N)=O)C(=O)N[C@@H]([C@@H](C)O)C(=O)N[C@@H](C)C(=O)N[C@@H]([C@@H](C)O)C(=O)N1)[C@@H](C)O)C(=O)N1CCC[C@H]1C(=O)N[C@@H](CO)C(=O)N[C@@H](CO)C(=O)N[C@H](C(=O)N[C@@H](CC(N)=O)C(=O)N[C@H](C(=O)NCC(=O)N[C@@H](Cc1c[nH]cn1)C(=O)N[C@@H](CC(N)=O)C(=O)N[C@H](C(=O)N[C@@H](Cc1ccc(O)cc1)C(N)=O)[C@@H](C)O)C(C)C)[C@@H](C)O [Example 80] (H-K([AEEA-γGlu-C20 diacid])CNTATCATQRLAHFLRHSSPNFGAIPSSTNVGHNTY-NH2; disulfide 2-7; N-terminus assumed) | 28 | 36.2 | 36.2 | 36.2 | ≥ 200 | ≥ 200 | ≥ 200 | ≥ 200 | ≥ 200 | ≥ 200 | ≥ 200 | ≥ 200 | 1.67 |  |
